Source: patent publication US20230165843A1, “USE AND PHARMACEUTICAL COMPOSITION OF PHENYLISOXAZOLYL METHYLENE-NAPHTHALENE-ETHER DERIVATIVES” (priority 2019, published 2023)

How the values were obtained:
HBV (D type) = assay: PHH (Primary Human Hepatocyte) Assay, HBV infection; assay type: cell-based, hepatitis B virus; details: PHH cells infected with HBV (D type); for inhibition of HBV RNA: culture supernatant day 9, RT-qPCR, FIG. 3; for inhibition of extracellular HBV DNA: culture supernatant day 9, qPCR, FIG. 1; for inhibition of HBsAg: culture supernatant day 9, FIG. 2
Protocol: PHH (Primary Human Hepatocyte) Assay: Cell Line and Compound Treatment
The PHH cells were seeded into the 48-well plates at the density of 1.32×10^5 cells/well. The PHH cells seeding date was defined as day 0. The PHH cells were infected with HBV (D type) at 1600 GE/cell on day 1. The culture medium containing compounds was refreshed on day 2, 4, 6 and day 8. On day 9, the cells were treated with CCK8 and culture supernatant and cells were collected.
FXR Compounds were tested at 10000.0, 3000.0, 1000.0, 300.0, 100.0, 30.0, and 10.0 nM, and ETV was tested at 0.2000, 0.0667, 0.0222, 0.0074, 0.0025, 0.0008, and 0.0003 nM. 1% DMSO was used as non-treatment control. The supernatants on day 9 were collected, and analyzed for HBV DNA by qPCR, HBV RNA by RT-qPCR, HBsAg and HBeA by ELISA.
DNA in the culture supernatants was isolated with the QIAamp 96 DNA Blood Kit according to the manual and quantified by the qPCR. 80 μl of the culture supernatants sample was used to extract DNA. The elution volume was 120 μl. The PCR mix (8 μl/well) and the samples (2 μl/well) or plasmid standards (2 μl/well) were added to the 384-well optical reaction plate and performed using the following program: 95C for 10 min, then cycling at 95° C. 15 sec, 60° C. 1 min for 40 cycles.
RNA in the culture supernatants was isolated with the PureLink™ Pro 96 Viral RNA Kit according to the manual. 35 μl of the culture supernatants sample was used to extract RNA. The elution volume was 100 μl. HBV RNA was quantified by RT-qPCR.
For HepG2-NTCP Assay, HBsAg and HBeAg in the samples harvested on day 9 were measured by the HBsAg ELISA kit (Autobio) and HBeAg ELISA kit (Autobio) according to the manual. For PHH assay, Chemiluminescence Apparatu was used to measure HBsAg according to the Antu HBsAg ELISA kit manual.
% HBV DNA inhibition=(1−HBV DNA copy number of test sample/avg. HBV DNA copy number of 1% DMSO control)×100%
% HBV RNA inhibition=(1−HBV RNA copy number of test sample/avg. HBV RNA copy number of 1% DMSO control)×100%
% HBsAg inhibition=(1−HBsAg quantity of sample/HBsAg quantity of 1% DMSO control)×100%
The EC50 and CC50 values were determined by dose-response curves fitted by GraphPad Prism using “log (agonist) vs. response-variable slope”.

HBV (rAAV8-1.3HBV) = assay: AAV/HBV Mouse Model; assay type: in vivo, mice
Excerpt: AAV/HBV Mouse Model and Compound Treatment
Male C57BL′6 mice of 5-week old (obtained from Shanghai Jihui Laboratory Animal Care Co., Ltd) were given rAAV8-1.3HBV (1×1011 v.g.) via tail vein to establish infection on Day −28. After 14 days, 21 days, and on Day −4, blood was drawn from submandibular vein to determine the level of HBV DNA, and HBsAg. On Day-4, 40 mice were chosen based on HBV DNA, and HBsAg results, and were randomly assigned to 5 groups. After the mice were infected with HBV virus for 28 days, treatment was given orally once per day, for 4 weeks. Group 1 was given vehicle (0.5% CMC-Na, 10 ml/kg), Group 2 was given positive control ETV (0.1 mg/kg). Groups 3, 4, and 5 were given Compound 33 at 10 mg/kg, 30 mg/kg, and 60 mg/kg, respectively. Blood was drawn from submandibular vein every week to determine the concentration of HBV DNA, HBV RNA, and HBsAg. On Day 28, blood was taken from the heart.
HBV DNA determination by qPCR. DNA in the mice plasma was isolated with the QIAamp 96 DNA Blood Kit according to the manual and quantified by the qPCR, and performed using the following program: 95C for 10 min, then cycling at […] 15 sec, 60° C. 1 min for 40 cycles.
HBV RNA determination by qPCR. RNA in the mice plasma was isolated with the PureLink™ Pro 96 Viral RNA/DNA Kit according to the manual. 20 μl of the plasma was used to extract RNA
HBsAg determination by ELISA. HBsAg in the samples was measured by the HBsAg ELISA kit (Autobio) according to the manual. Briefly, after the plasma was diluted 1200× in a coated plate, and incubate with the enzyme conjugated ([…], 60 min), and the plate was washed 5 time. Substrate was added, and it was kept from light at room temperature for 10 min and intensity was measured by a plated reader.
Average±Standard deviation was calculated for each group, and analyzed with Student's t-test.

[1] = positive control 0.1 mg/kg orally once per day, 4 weeks

SMILES	inhibition of HBV RNA (HBV (D type))	inhibition of extracellular HBV DNA (HBV (D type))	inhibition of HBsAg (HBV (D type))	HBsAg, lowered as compared to the vehicle group (HBV (rAAV8-1.3HBV); high dose group 60 mg/kg orally once per day, 28 days, FIG. 6)	HBV RNA, lower than the vehicle group (HBV (rAAV8-1.3HBV); high dose group 60 mg/kg orally once per day, 28 days, significantly lower than vehicle (p<0.01), FIG. 5)	HBV DNA, lower than the vehicle group (HBV (rAAV8-1.3HBV); high dose group 60 mg/kg orally once per day, 28 days, significantly lower than vehicle (p<0.05), FIG. 4)	effect on HBV RNA as compared to the vehicle group (HBV (rAAV8-1.3HBV); [1])	effect on HBsAg as compared to the vehicle group (HBV (rAAV8-1.3HBV); [1])
Cc1nc(Oc2cccc3cc(OCc4c(-c5c(Cl)cccc5Cl)noc4C4CC4)ccc23)ccc1C(=O)O [Compound 27, 6-((6-((5-cyclopropyl-3-(2,6-dichlorophenyl)isoxazol-4-yl)methoxy)naphthalen-1-yl)oxy)-2-methylnicotinic acid]	dose-dependent inhibition	dose-dependent inhibition	dose-dependent inhibition					
O=C(O)c1ccc(Oc2cccc3cc(OCc4c(-c5c(Cl)cccc5Cl)noc4C4CC4)ccc23)nc1 [Compound 22, 6-((6-((5-cyclopropyl-3-(2,6-dichlorophenyl)isoxazol-4-yl)methoxy)naphthalen-1-yl)oxy)nicotinic acid]	dose-dependent inhibition	dose-dependent inhibition	dose-dependent inhibition					
O=C([O-])c1ccc(Oc2ccc3cc(OCc4c(-c5c(Cl)cccc5Cl)noc4C4CC4)ccc3c2)nc1.[Na+] [Compound 33, Sodium 6-((6-((5-cyclopropyl-3-(2,6-dichlorophenyl)isoxazol-4-yl)methoxy)naphthalen-2-yl)oxy)nicotinate]				0.38 log 10 [IU/ml]	0.60-0.66 log 10[RNA copy/uL]	0.77-1.12 log 10[DNA copy/uL]		
C=C1[C@H](CO)[C@@H](O)C[C@@H]1n1cnc2c(=O)[nH]c(N)nc21 [ETV, entecavir, reference compound]	no significant inhibition	significant inhibition	no significant inhibition				no significant effect	no significant effect
O=C(O)c1ccc(Oc2ccc3cc(OCc4c(-c5c(Cl)cccc5Cl)noc4C4CC4)ccc3c2)nc1 [Compound 1, 6-((6-((5-cyclopropyl-3-(2,6-dichlorophenyl)isoxazol-4-yl)methoxy)naphthalen-2-yl)oxy)nicotinic acid]	dose-dependent inhibition	dose-dependent inhibition	dose-dependent inhibition					
